Assay results as given in ChEMBL document CHEMBL1165961, “Fijiolides A and B, inhibitors of TNF-alpha-induced NFkappaB activation, from a marine-derived sediment bacterium of the genus Nocardiopsis” (J Nat Prod, 2010).
The source made the active and inactive calls. The rule behind the calls is not given here.

Columns and labels:
Assay type in all cases: cell-based
[1] = target: NAD(P)H dehydrogenase [quinone] 1 (Mus musculus) (UniProt Q64669); assay: Induction of NADPH-dependent quinone reductase activity in mouse Hepa-1c1c7 cells at 28.4 uM after 48 hrs by MTT assay
Sequence of NAD(P)H dehydrogenase [quinone] 1 (Mus musculus) (Q64669 whole entry): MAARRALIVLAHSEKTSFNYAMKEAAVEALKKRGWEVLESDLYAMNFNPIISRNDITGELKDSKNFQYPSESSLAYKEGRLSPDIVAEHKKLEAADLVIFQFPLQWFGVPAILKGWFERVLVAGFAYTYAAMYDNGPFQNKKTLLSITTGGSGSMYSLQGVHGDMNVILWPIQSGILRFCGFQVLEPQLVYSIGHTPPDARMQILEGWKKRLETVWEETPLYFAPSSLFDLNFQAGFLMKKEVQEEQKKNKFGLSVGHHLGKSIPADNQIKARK

HEK293 = assay: (§1) Inhibition of NF-kappaB activity in TNF-alpha-induced human HEK293 cells by luciferase assay; conditions: dose or concentration not given here
[2] = target: NAD(P)H dehydrogenase [quinone] 1 (Mus musculus) (UniProt Q64669); assay: Induction of NADPH-dependent quinone reductase activity in mouse Hepa-1c1c7 cells assessed as concentration to double activity after 48 hrs by MTT assay
[3] = target: NAD(P)H dehydrogenase [quinone] 1 (Mus musculus) (UniProt Q64669); assay: Induction of NADPH-dependent quinone reductase activity in mouse Hepa-1c1c7 cells assessed as induction ratio at 28.4 uM after 48 hrs by MTT assay relative to DMSO control
[4] = as §1

With `CN(C)[C@H]1[C@@H](O)[C@@H](O)[C@H](O[C@]23C=CC=C2c2c4ccc(c2Cl)[C@@H](O)COC(=O)C[C@H](N)c2cc(O)c(c(Cl)c2)O[C@H]43)OC1(C)C` the Activity [1] was “inactive” and the inhibition (HEK293) was 46.5%.

Work on `O=c1cc(-c2ccc(Br)cc2)oc2ccccc12` yielded a CD [2] of 0.013 µM.

Compound `CC(=O)N[C@H]1CC(=O)OC[C@H](O)c2ccc3c(c2Cl)C2=CC=C[C@]2(O[C@@H]2OC(C)(C)[C@@H](N(C)C)[C@@H](O)[C@H]2O)[C@@H]3Oc2c(O)cc1cc2Cl` [FIJIOLIDE A] has a CD [2] of 1.8 µM, a Ratio [3] of 3.5 and an inhibition (HEK293) of 70.3%. It also gave an IC50 [4] of 570 nM.
